Assay results taken from US7179825B2, “Retinoic acid mimetic anilides” (Janssen Pharmaceutica N.V., priority 1997, dated 2007).

Assays:
[1] = tested on: metabolism of retinoic acid in human breast cancer cells; test: Inhibition of retinoic acid (RA) metabolism (Example C.1); type: cell-based; conditions: MCF-7 human breast cancer cells, 3H-RA as substrate, concentration needed to reduce the amount of metabolites to 50% of the control
Procedure, shortened: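 MCF-7 cells, pre-stimulated with RA the day before, incubated with ³H-RA substrate and test compound in 1% DMSO. Polar ³H-metabolites separated from unmetabolized RA and counted by scintillation. IC50 is the concentration cutting metabolite formation to 50% of control, with blank run alongside.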

Ovariectomized rats = test: Vaginal keratinization test on ovariectomized rats (Example C.2); type: in vivo; conditions: estradiol undecylate induced keratinization, per os once daily on days 1-3, active dose = 50% of rats show complete suppression
Procedure, shortened: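 Ovariectomized rats given s.c. estradiol undecylate (100 μg per 100 g body weight in sesame oil), then oral compound once daily on days 1-3 (vehicle PEG 200). Vaginas assessed histologically one day after last dose; lowest active dose (mg/kg) is the dose giving complete keratinization suppression in 50% of rats.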

| SMILES | IC50 [1] | LAD (lowest active dose) (Ovariectomized rats) | IC50 ([1]; MCF7) | minimal effective dose (Ovariectomized rats; Rattus norvegicus, po, read-out: LAD (lowest active dose)) |
| --- | --- | --- | --- | --- |
| O=C(C=C(c1ccccc1)c1ccccc1)Nc1ccc(C(c2ccc(Cl)cc2)c2ccccn2)cc1 (stereo not shown) [Compound 680] | 12.1 nM | >20.00 mg/kg |  |  |
| C/C(=C\c1ccccc1)C(=O)Nc1ccc(C(c2ccccn2)C(C)C)cc1 (stereo not shown) [Compound 682] | > 100 nM | >20.00 mg/kg |  |  |
| Cc1nccn1C(c1ccc(NC(=O)Cc2ccc(Cl)cc2)cc1)C(C)C (stereo not shown) [Compound 695] | > 100 nM | >10.00 mg/kg |  |  |
| CC(C)C(c1ccc(NC(N)=Nc2ccccc2)cc1)n1ccnc1 (stereo not shown) [Compound 743] | 11 nM | >10.00 mg/kg |  |  |
| CC(C)C(c1ccc(NC(=O)Cc2ccc(Cl)cc2)cc1)(C(C)C)n1cncn1 [Compound 745] | 3.87 nM | >5.00 mg/kg |  |  |
| CC(C)C(c1ccc(NC(=O)Nc2cccc(F)c2)cc1)(C(C)C)n1ccnc1 [Compound 746] | > 100 nM | >5.00 mg/kg |  |  |
| CC(=Cc1ccccc1)C(=O)Nc1ccc(C(C(C)C)n2cnnc2)cc1 (stereo not shown) [Compound 749] | 126 nM | >20.00 mg/kg |  |  |
| C/C(=C\c1ccccc1)C(=O)Nc1ccc(C(C(C)C)(C(C)C)n2ccnc2)cc1 [Compound 751] | 67 nM | 10.00 mg/kg |  |  |
| CC(=Cc1ccccc1)C(=O)Nc1ccc(C(C)(C)n2ccnc2)cc1 [Compound 753] | > 100 nM | >10.00 mg/kg |  |  |
| CCC(c1ccc(NC(=O)C(C)=Cc2ccccc2)cc1)(C(C)C)n1ccnc1 (stereo not shown) [Compound 758] | 1.88 nM | >5.00 mg/kg |  |  |
| COc1ccc(CC(=O)Nc2ccc(C(C(C)C)(C(C)C)n3ccnc3)cc2)cc1OC [Compound 762] | 40.8 nM | >5.00 mg/kg |  |  |
| CC(C)C(c1ccc(NC(=O)Cc2ccc(Cl)cc2)cc1)(C(C)C)n1ccnc1 [Compound 763] | 5.62 nM | >5.00 mg/kg |  |  |
| CC(C)C(c1ccc(NC(=S)Cc2ccc(Cl)cc2)cc1)n1ccnc1 (stereo not shown) [Compound 764, 4-chloro-N-[4-[1-(1H-imidazol-1-yl)-2-methylpropyl]phenyl]benzenethane-thioamide] |  |  | 23.3 nM | > 5 mg/kg |
| Cc1nccn1C(c1ccc(NC(=O)Nc2cccc(F)c2)cc1)C(C)C (stereo not shown) [Compound 773] | > 100 nM | >10.00 mg/kg |  |  |
| O=C(Cc1ccc(Cl)cc1)Nc1ccc(C2(n3ccnc3)CCC2)cc1 [Compound 774] | 5.27 nM | 10.00 mg/kg |  |  |
| CC(=O)Nc1ccc(C2(n3ccnc3)CCCCC2)cc1 [Compound 776] | 4.39 nM | >20.00 mg/kg |  |  |
| CCC(CC)C(c1ccc(NC(=O)c2nc3ccccc3s2)cc1)n1ccnc1.O=C(O)C(=O)O (stereo not shown) [Compound 778] | 75.9 nM | 5.00 mg/kg |  |  |
